Drawing on ChEMBL document CHEMBL4619706, “Synthesis, biological evaluation and molecular modeling study of [1,2,4]-Triazolo[4,3-c]quinazolines: New class of EGFR-TK inhibitors” (Bioorg Med Chem, 2020), this text covers IC50 and Activity for 1 compound.

One assay relates to HepG2. Description: Anticancer activity against human HepG2 cells assessed as inhibition of cell growth incubated for 24 hrs by MTT assay. The class given is functional, cell-based. To be noted: HepG2, 24 h.
Assay [1] concerns MCF7. The experiment in a line: Anticancer activity against human MCF7 cells assessed as inhibition of cell growth incubated for 24 hrs by MTT assay. The assay is classed as functional, cell-based. To be noted: MCF7, 24 h.
Another assay has as its system PC-3. The experiment in a line: Anticancer activity against human PC3 cells assessed as inhibition of cell growth incubated for 24 hrs by MTT assay. The class given is functional, cell-based. To be noted: PC-3, 24 h. For orientation: Tetrazolium assays rely on reduction of a dye to a coloured formazan, in cell work by metabolically active cells.
Another assay relates to HCT-116. The experiment in a line: Anticancer activity against human HCT116 cells assessed as inhibition of cell growth incubated for 24 hrs by MTT assay. The assay is classed as functional, cell-based. To be noted: HCT-116, 24 h.
The next assay relates to HeLa. Description: Anticancer activity against human HeLa cells assessed as inhibition of cell growth incubated for 24 hrs by MTT assay. The class given is functional, cell-based.
Assay [2] concerns the target Epidermal growth factor receptor (Homo sapiens, UniProt P00533). Description: Inhibition of human EGFR-TK using PTK substrate after 40 mins in presence of ATP by Kinase-Glo luminescent assay.
The test system of assay [3] is MCF7. Description: Induction of apoptosis in human MCF7 cells assessed after 24 hrs by Annexin V-FITC/propidium iodide double staining based FACSCalibur flow cytometry analysis. The assay is classed as functional, cell-based. Background: A flow cytometer gives signals particle by particle.
Assay [4] concerns MCF7. The experiment in a line: Induction of apoptosis in human MCF7 cells assessed as viable cells after 24 hrs by Annexin V-FITC/propidium iodide double staining based FACSCalibur flow cytometry analysis (reference value: 97.89 %). The assay is classed as functional.
Assay [5] deals with MCF7. The experiment in a line: Induction of apoptosis in human MCF7 cells assessed as early apoptotic cells after 24 hrs by Annexin V-FITC/propidium iodide double staining based FACSCalibur flow cytometry analysis (reference value: 1.22 %). The class given is functional.
Assay [6] relates to MCF7. The experiment in a line: Induction of apoptosis in human MCF7 cells assessed as late apoptotic cells after 24 hrs by Annexin V-FITC/propidium iodide double staining based FACSCalibur flow cytometry analysis (reference value: 0.43 %). The assay is classed as functional.
The subject of assay [7] is MCF7. Description: Induction of apoptosis in human MCF7 cells assessed as necrotic cells after 24 hrs by Annexin V-FITC/propidium iodide double staining based FACSCalibur flow cytometry analysis (reference value: 0.46 %). The assay is classed as functional.
Assay [8] relates to MCF7. The experiment in a line: Induction of apoptosis in human MCF7 cells assessed as cumulative apoptosis after 24 hrs by Annexin V-FITC/propidium iodide double staining based FACSCalibur flow cytometry analysis (reference value: 2.11 %). The assay is classed as functional.
Assay [9] relates to MCF7. Description: Cell cycle arrest in human MCF7 cells assessed as accumulation of cells at G0/G1 phase at IC50 after 24 hrs by propidium iodide/RNase staining based FACSCalibur flow cytometry analysis (reference value: 57.28 %). The class given is functional.
Assay [10] concerns MCF7. Description: Cell cycle arrest in human MCF7 cells assessed as accumulation of cells at S phase at IC50 after 24 hrs by propidium iodide/RNase staining based FACSCalibur flow cytometry analysis (reference value: 26.49 %). The class given is functional.
For assay [11], the system named is MCF7. Description: Cell cycle arrest in human MCF7 cells assessed as accumulation of cells at G2/M phase at IC50 after 24 hrs by propidium iodide/RNase staining based FACSCalibur flow cytometry analysis (reference value: 16.23 %). The class given is functional.
The test system of assay [12] is MCF7. Description: Cell cycle arrest in human MCF7 cells assessed as accumulation of cells at pre-G1 phase at IC50 after 24 hrs by propidium iodide/RNase staining based FACSCalibur flow cytometry analysis (reference value: 2.11 %). The class given is functional.

As usually defined, the IC50 is the concentration that inhibits the measured activity by half.

Epidermal growth factor receptor, sequence (P00533 whole entry): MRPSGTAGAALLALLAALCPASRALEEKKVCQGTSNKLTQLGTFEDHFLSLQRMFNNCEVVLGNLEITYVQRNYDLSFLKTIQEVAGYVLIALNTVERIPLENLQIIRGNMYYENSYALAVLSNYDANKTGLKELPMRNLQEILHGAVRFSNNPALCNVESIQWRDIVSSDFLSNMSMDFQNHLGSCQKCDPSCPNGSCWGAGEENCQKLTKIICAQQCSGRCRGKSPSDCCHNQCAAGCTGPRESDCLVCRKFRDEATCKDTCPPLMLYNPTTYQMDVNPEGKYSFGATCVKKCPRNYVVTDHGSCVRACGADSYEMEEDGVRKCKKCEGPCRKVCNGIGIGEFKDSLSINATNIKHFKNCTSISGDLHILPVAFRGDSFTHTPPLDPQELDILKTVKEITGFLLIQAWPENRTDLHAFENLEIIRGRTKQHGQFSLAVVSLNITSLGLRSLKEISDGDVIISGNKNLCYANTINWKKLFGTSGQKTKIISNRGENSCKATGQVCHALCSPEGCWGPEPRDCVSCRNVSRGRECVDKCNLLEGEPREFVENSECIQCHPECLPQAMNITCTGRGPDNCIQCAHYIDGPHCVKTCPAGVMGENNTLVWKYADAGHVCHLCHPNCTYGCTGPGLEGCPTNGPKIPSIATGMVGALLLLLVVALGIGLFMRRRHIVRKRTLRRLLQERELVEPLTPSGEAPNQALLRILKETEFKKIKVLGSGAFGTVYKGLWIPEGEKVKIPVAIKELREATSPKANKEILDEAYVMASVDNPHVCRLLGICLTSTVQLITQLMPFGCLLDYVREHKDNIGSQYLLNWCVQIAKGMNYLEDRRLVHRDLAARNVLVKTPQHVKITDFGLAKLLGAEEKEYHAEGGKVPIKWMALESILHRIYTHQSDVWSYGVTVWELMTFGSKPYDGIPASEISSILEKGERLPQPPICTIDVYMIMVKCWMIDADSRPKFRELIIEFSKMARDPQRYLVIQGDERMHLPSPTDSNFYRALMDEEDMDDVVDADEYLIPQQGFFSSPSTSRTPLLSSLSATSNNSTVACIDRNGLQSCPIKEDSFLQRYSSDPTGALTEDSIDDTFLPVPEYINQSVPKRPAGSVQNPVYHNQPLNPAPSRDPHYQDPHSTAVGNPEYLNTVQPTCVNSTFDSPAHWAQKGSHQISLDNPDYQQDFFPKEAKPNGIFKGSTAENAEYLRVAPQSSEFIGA

As to `Clc1nc2ccccc2c2nnc(/N=C/c3ccco3)n12`, the IC50 in the assay on HepG2 stood at 15 µM; in the assay on MCF7 [1], 9.73 µM; in the assay with PC-3, 21.7 µM; in the assay on HCT-116, 14.8 µM; in the assay with HeLa it was 18.9 µM; in assay [2], 0.74 µM. In addition, the Activity result was “Dose-dependent effect” in the assay on MCF7 [3]; 91.44% in the assay on MCF7 [4]; 2.92% in the assay with MCF7 [5]; 4.22% in the assay with MCF7 [6]; 1.42% with MCF7 [7]; 8.56% in the assay with MCF7 [8]. For the same compound, the Activity with MCF7 [9] is 46.72%; with MCF7 [10], 30.19%; with MCF7 [11], 23.09%; in the assay with MCF7 [12], 8.56%.
